Reference: patent US7429460B2, “Methods of screening for inhibitors of phospholipid synthesis related to glycolipid-storage diseases” (Yeda Research and Development Co., Ltd., priority 2003, dated 2008)

Legend:
human macrophages = experiment: PC synthesis in macrophage cultures; type: cell-based; details: 500 μM CBE for 6 days
Procedure: Human macrophages were obtained from healthy donors. Blood samples were immediately diluted 2.5 times with PBS pH 7.4 and layered on 3 ml Ficoll Histopaque 1.077 in conical tubes. The tubes were then centrifuged at 400 g for 25 min. The peripheral blood mononuclear leukocyte (PBL) band at the PBS-plasma/Ficoll interface was taken for further analyses. PBL were washed twice with PBS pH 7.4, and resuspended in 5 ml of RPMI 1640 containing 10% fetal calf serum. An aliquot of the cell suspension was used to assess cell viability using the exclusion trypan-blue test. The cell suspension was adjusted to a final concentration of 6*10^6 cells/ml and incubated for 3 hours at 37° C. in a plastic Petri dish (Falcon). Non adherent cell suspension (mononuclear leukocytes) was then transferred to a culture flask while the adherent cells (mainly macrophages) were cultured separately in RPMI 1640 supplemented with 10% fetal calf serum, 2 mM L-glutamine, 100 U/ml penicillin and 0.1 mg/ml streptomycin. The cells were cultured in separate cultures with or without 500 μM CBE for 5 days; on day 5, PMA was added to the macrophage suspension (final concentration: 10 ng/ml) to allow full differentiation. […] The cells were thoroughly washed with non-radioactive medium and lipids were further extracted and analyzed as described herein above. […]

rat hippocampal neurons [1] = details: 200 μM CBE, after 3 days in culture; cited from earlier work
rat hippocampal neurons [2] = experiment: Labeling of neuronal lipids with [14C]methyl choline; type: cell-based; details: after 4-days of treatment, remained elevated for at least 8-days
Procedure: Neurons were incubated for 48 h with 1 μCi [^14C]methyl choline/ml of culture medium. Subsequently, medium was removed and the neurons were washed 3-times with phosphate-buffered saline. Neurons were removed from the cover slips by scraping with a rubber policeman into 2 ml of cold methanol, and then sonicated. Part of the resulting suspension was used for lipid analysis, part for analysis of the incorporation of total radioactivity into the cells, and part for DNA analysis (see below).
Lipids were extracted by addition of chloroform to obtain a final chloroform/methanol ratio of 1:1 (v/v). The lower phase was dried under N2 and the upper phase was kept for analysis of [^14C]methyl choline incorporation into water-soluble metabolites. […] One ml of methanol and 5 ml of Optima Gold scintillation fluid (Packard, Downers Groove, Ill.) were added to each vial for scintillation counting, and radioactivity was determined in a Packard 2100 beta radiospectrometer equipped with the Transformed Spectral Index of the External Standard/Automatic Efficiency Control (tSIE/AEC) program for quench correction and counting of double radiolabeled samples.

[3] = system: CTP:phosphocholine cytidylyltransferase (CCT); experiment: CCT assay in hippocampal neuron homogenates with substance added to the assay mixture; type: biochemical, rat; details: added directly to the assay mixture
Procedure: Neurons from individual cover slips were washed twice with ice-cold phosphate-buffered saline, and cells removed by scraping into 300 μl of buffer containing 50 mM imidazole, 2 mM EDTA, 150 mM KCl, 6 mM ADP, 0.2 mM phenylmethylsulfonylfluoride, 1 μg/ml pepstatin and 1 μg/ml leupeptin. After brief sonication, an aliquot was removed for DNA determination and 100 μl was used for the CCT assay.
CCT was assayed as described (Weinhold P A and Feldman D A. 1992. Choline-phosphate cytidylyltransferase. Methods Enzymol. 209, 248-258), with some minor modifications. The assay was performed in a final volume of 200 μl containing 1.6 mM phosphorylcholine/0.25 μCi [^14C]methyl phosphorylcholine, 3 mM CTP, 12 mM magnesium acetate, and DOPC liposomes with or without oleic acid and GicCer or GalCer, as indicated in the figure legends. Liposomes were prepared by sonicating resuspended lipids in the assay buffer at room temperature for 3 min using a sonicator (Sonics & Materials Inc., Newtown, Conn.) fitted with a micro-tip probe set to 750 W output, using 25% of the maximal amplitude and with pulsations of 9.0 sec every 9.2 sec, which gave a translucent liposome preparation with no precipitates. The final concentration of DOPC and oleic acid in the liposomes was 500 μM each. The reaction was terminated after 25 min at 37° C. by addition of 200 μl of 150 mM phosphorylcholine in 10% trichloroacetic acid. CDP-choline was recovered by addition of 2 ml of 6% charcoal in water (w/v). After 30 min at room temperature the charcoal suspension was washed 4 times with water and centrifuged at 1,000 gav for 10 min. The aqueous supernatants were removed and CDP-choline was eluted from the charcoal with 3 washes of water/ethanol/28% NH4OH (116:188:11, v/v/v). Eluates were pooled and evaporated to dryness under N2. Phosphorylcholine and CDP-choline were added to the tubes and the samples separated by TLC using 0.9% NaCl/methanol/28% NE4OH (50:70:5, v/v/v) as the developing solvent. Metabolites were identified by iodine, and the CDP-choline spot was scraped into scintillation vials for scintillation counting.
CCT activity was assayed in homogenates prepared from 8-day-old normal rat hippocampal neurons as described herein above. The reaction mixture comprised 0.5 mM DOPC/0.5 mM oleic acid/0.3 mM sphingolipid or lyso-sphingolipid. CCT activity with each sphingolipid or lyso-sphingolipid was measured twice. Basal CCT activity differed by ˜20% between the two experiments; however, the extent of activation or inhibition of CT activity was similar for each sphingolipid and lyso-sphingolipid.

O[C@H]1[C@H](O)[C@@H](O)[C@@H]2O[C@@H]2[C@@H]1O (racemic) [CBE, conduritol-B-epoxide]
[14C]-PC in treated macrophages (human macrophages): dramatic increase | axons longer than untreated counterparts (rat hippocampal neurons [1]): ~20% | [14C]methyl choline incorporation into [14C]SM and [14C]PC (rat hippocampal neurons [2]): significant increase | effect on CCT activity when added directly to the assay mixture [3]: had no effect
